Patent publication EP0431480A2, “Substituted 10-ring-lactones, process for their preparation and their use” (HOECHST AKTIENGESELLSCHAFT, priority 1989, dated 1991)

What was measured:
[1] = tested on: Serumlipoproteine; test: Chronic test in male rats: 7 daily oral doses, serum lipoproteins separated by preparative ultracentrifugation; assay type: in vivo, Ratte; conditions: for Vasoprotektiv Index HDL-C LDL-C: HDL-Cholesterin : LDL-Cholesterin, Kontrolle 3,24
Text: Die Hemmung der hepatischen Cholesterinbiosynthese hat Auswirkungen auf die Verminderung von Serum-Lipiden, wie im chronischen Versuch an der männlichen Ratte nachgewiesen werden konnte (Tabelle 2).
Gruppen männlicher Ratten des Stammes HOE: WISKf (SPF 71) mit einem Ausgangsgewicht von etwa 240 g erhielten täglich morgens die erfindungsgemäßen Verbindungen in Polyethylenglykol 400 per
Schlundsonde, wobei die jeweilige Kontrollgruppe nur das Vehikel erhielt. 24 Stunden nach der letzten (7.) Applikation und nach 24 Stunden Futterentzug wurde Blut entnommen und im gewonnen Serum die Lipoproteine aus dem Pool einer Rattengruppe mittels der präparativen Ultrazentrifugentechnik getrennt. Hierbei wurden folgende Dichtegrenzen für die Trennung von VLDL, LDL und HDL benutzt:
• VLDL = very low density lipoprotein • LDL = low density lipoprotein • HDL = high density lipoprotein
Für die Bestimmung des Cholesterins und der Triglyceride wurden vollenzymatische Methoden nach Boehringer/Mannheim benutzt, für die Bestimmung des Proteins die Methode von Lowry et al. J. Biol. Chem., 193, 265 (1951) herangezogen. […] Daraus resultiert eine Erhöhung des vasoprotektiven Index (HDL-Cholesterin : LDL-Cholesterin) mit einer ca. 8-fach höheren Potency als Clofibrat.

[2] = tested on: HEP-G2-Zellen; test: Inhibition of cholesterol biosynthesis: incorporation of 14C sodium acetate into cholesterol in HEP-G2 cell monolayers; assay type: cell-based; conditions: Homo sapiens; for inhibition at 0.1 µM: HepG2, Konzentration im Medium 10^-7 M; for inhibition at 0.0025 µM: HepG2, Konzentration im Medium 2,5·10^-9 M
Text: Hemmung der Cholesterin Biosynthese
Die Hemmung der Cholesterin Biosynthese durch die erfindungsgemäßen Verbindungen wurde in Zellkulturversuchen mit HEP-G2-Zellen über die Wirkung auf den Einbau von ^14C-Natriumacetat in Cholesterin nachgewiesen. Dazu wurden Monolayers von HEP-G2-Zellen in lipoproteinfreiem Nährmedium mit entsprechenden Konzentrationen der erfindungsgemäßen Verbindungen eine Stunde vorinkubiert; nach Zugabe des^14C markierten Präkursors ^14C-Natriumacetat wurde die Inkubation für 3 Stunden fortgesetzt. Danach wurde ein Teil der Zellen alkalisch verseift, nach vorheriger Zugabe eines internen Standards von ^3H-Cholesterin. Die Lipide der verseiften Zellen wurden mit Chloroform-Methanol extrahiert. Dieses Lipidgemisch wurde nach Zusatz von Trägercholesterin präparativ dünnschichtchromatographisch getrennt, die Cholesterinbande nach dem Sichtbarmachen isoliert und die aus dem 14C-Präkursor gebildete Menge '^4C-Cholesterin szintigraphisch bestimmt. In einem aliquoten Teil der Zellen wurde Zellprotein bestimmt, so daß die in der Zeiteinheit pro mg Zellprotein aus 14C-Präkursor gebildete Menge an ^14C-Cholesterin berechnet werden konnte. Zum Vergleich für die Hemmwirkung einer zugesetzten erfindungsgemäßen Verbindung diente die Kontrolle, so daß direkt die Hemmung der Cholesterinbiosynthese bei einer bestimmten molaren Konzentration der erfindungsgemäßen Verbindung im Medium angegeben werden konnte. Zur Beurteilung der Wirkungstärke der erfindungsgemäßen Verbindungen wurde die Hemmwirkung von Lovastatin im selben Versuchsansatz bestimmt. In aliquoten Anteilen der Zellkultur wurde die Intaktheit der Zellkultur und die fehlende Zellschädigung durch Einwirkung der erfindungsgemäßen Verbindung morphologisch (Lichtmikroskop) beurteilt und biochemisch durch Bestimmung des Release von Laktat-Dehydrogenase ins Inkubationsmedium gemessen.
Das Ergebnis dieser Untersuchung ist in Tabelle 2 wiedergegeben. Die Wirkung der erfindungsgemäßen Substanzen als Cholesterin-Biosynthese-Hemmer ist deutlich zu erkennen. In den geprüften Konzentrationen hatten die erfindungsgemäßen Verbindungen im Zeitraum von 4 Stunden keine cytotoxische Wirkung.

[3] = read-out: % Cholesterin-Biosynthese-Hemmung

## CCOC(=O)C(C)(C)Oc1ccc(Cl)cc1 [Clofibrat, reference compound]
[1]; 100 mg/kg/Tag oral, 7 days
  Beeinflussung der Serumlipoproteine im Vergleich zur Kontrollgruppe in % HDL-C: -36%
  Beeinflussung der Serumlipoproteine im Vergleich zur Kontrollgruppe in % HDL-Protein: -14%
  Beeinflussung der Serumlipoproteine im Vergleich zur Kontrollgruppe in % LDL-C: -47%
  Beeinflussung der Serumlipoproteine im Vergleich zur Kontrollgruppe in % LDL-Protein: -13%
  Beeinflussung der Serumlipoproteine im Vergleich zur Kontrollgruppe in % VLDL-C: -56%
  Vasoprotektiv Index HDL-C LDL-C: 3,87

## CC(=O)OC1CC(=O)CC(=O)OC(C)CC2OC12 (centres unmarked) [II.1]
[2]; [3]
  inhibition at 0.1 µM: 13%

## CC1CC2OC2C(OC(=O)c2ccccc2)CC(=O)CC(=O)O1 (centres unmarked) [II.3]
[1]; 30 mg/kg/Tag oral, 7 days
  Beeinflussung der Serumlipoproteine im Vergleich zur Kontrollgruppe in % HDL-C: +22%
  Beeinflussung der Serumlipoproteine im Vergleich zur Kontrollgruppe in % LDL-C: -19%
  Beeinflussung der Serumlipoproteine im Vergleich zur Kontrollgruppe in % LDL-Protein: -14%
  Beeinflussung der Serumlipoproteine im Vergleich zur Kontrollgruppe in % VLDL-C: -21%
  Vasoprotektiv Index HDL-C LDL-C: 4,88
[1]; 7-tägige orale Applikation, lower dose than Clofibrat
  Wirkung auf LDL, VLDL und HDL-Fraktion (in words): deutlichen Verminderung von LDL und VLDL, bei Erhöhung der HDL-Fraktion
[1]; 7 days oral
  Verträglichkeit (Anwendung der Substanz von den Ratten vertragen): anstandslos vertragen
[1]; 7 days oral, in contrast to Clofibrat
  Hepatomegalie: keine Hepatomegalie
[1]; relative to Clofibrat, 7 days oral
  Erhöhung des vasoprotektiven Index (HDL-Cholesterin : LDL-Cholesterin): höhere Potency als Clofibrat: ca. 8 -fach

## CC1CC2OC2C(OC(=O)Nc2ccccc2)CC(=O)CC(=O)O1 (centres unmarked) [II.4, 2,4-Dioxo-10-methyl-1-oxa-6-(phenyl-amino-carbonyl-oxy)-7-cyclodecenoxid]
[2]; [3]
  inhibition at 0.1 µM: 68%

## CCC(=O)OC1CC(=O)CC(=O)OC(C)CC2OC12 (centres unmarked) [II.8]
[2]; [3]
  inhibition at 0.0025 µM: 51%
  inhibition at 0.1 µM: 69%

## CC(C)CC(=O)OC1CC(=O)CC(=O)OC(C)CC2OC12 (centres unmarked) [II.10]
[2]; [3]
  inhibition at 0.0025 µM: 48%
  inhibition at 0.1 µM: 59%

## CCCCC(=O)OC1CC(=O)CC(=O)OC(C)CC2OC12 (centres unmarked) [II.11, 6-Butylcarbonyloxy-2,4-dioxo-10-methyl-1-oxa-7-cyclodecenoxid]
[2]; [3]
  inhibition at 0.0025 µM: 57%
  inhibition at 0.1 µM: 73%

## CCCCCC(=O)OC1CC(=O)CC(=O)OC(C)CC2OC12 (centres unmarked) [II.13]
[2]; HepG2, Konzentration im Medium 10^-8 M, read-out: % Cholesterin-Biosynthese-Hemmung
  inhibition at 0.01 µM: 44%
[2]; HepG2, Konzentration im Medium 10^-9 M, read-out: % Cholesterin-Biosynthese-Hemmung
  inhibition at 0.001 µM: 37%

## CC[C@H](C)C(=O)O[C@H]1C[C@@H](C)C=C2C=C[C@H](C)[C@H](CC[C@@H]3C[C@@H](O)CC(=O)O3)[C@H]21 [Lovastatin, reference compound]
[2]; HepG2, Lovastatin in the same experimental run as the substance of the row, read-out: Vergleichsreihe für Lovastatin im selben Versuchsansatz IC50
  IC50: 10 nM
